The target of this experiment is T1, CRTH2 receptor (Homo sapiens, UniProt Q9Y5Y4).
T1 construct: expressed in transfected cells; host or cells: Human embryonic kidney (HEK) cells, membranes
T1 sequence (Q9Y5Y4 1-395): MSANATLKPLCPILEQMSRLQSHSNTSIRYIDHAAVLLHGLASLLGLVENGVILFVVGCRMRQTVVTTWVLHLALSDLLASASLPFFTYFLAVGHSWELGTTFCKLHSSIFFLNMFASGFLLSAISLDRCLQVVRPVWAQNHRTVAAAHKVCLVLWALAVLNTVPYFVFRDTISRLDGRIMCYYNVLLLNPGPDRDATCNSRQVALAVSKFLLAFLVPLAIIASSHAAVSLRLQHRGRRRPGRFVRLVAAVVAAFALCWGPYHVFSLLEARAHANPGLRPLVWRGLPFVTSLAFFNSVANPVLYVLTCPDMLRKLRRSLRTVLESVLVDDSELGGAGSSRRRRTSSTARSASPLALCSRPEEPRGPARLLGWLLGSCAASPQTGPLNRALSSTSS
Description: CRTH2 radioligand binding assay ([3H]-PGD2 displacement, SPA). The note with it: HEK cell membranes expressing the CRTH2 receptor, 1 nM [3H]-PGD2. On the procedure:
Compounds of the invention were tested using the following biological test methods to determine their ability to displace PGD2 from the CRTH2 receptor and for their ability to antagonise the functional effects of PGD2 at the CRTH2 receptor.
The receptor binding assay is performed in a final volume of 200 μl binding buffer [10 mM BES (pH 7.4), 1 mM EDTA, 10 mM manganese chloride, 0.01% BSA] and 1 nM [^3H]-PGD2 (Amersham Biosciences UK Ltd). Ligands are added in assay buffer containing a constant amount of DMSO (1% by volume). Total binding is determined using 1% by volume of DMSO in assay buffer and non-specific binding is determined using 10 μM of unlabeled PGD2 (Sigma). Human embryonic kidney (HEK) cell membranes (3.5 μg) expressing the CRTH2 receptor are incubated with 1.5 mg wheatgerm agglutinin SPA beads and 1 nM [^3H]-PGD2 (Amersham Biosciences UK Ltd) and the mixture incubated for 3 hours at room temperature. Bound [^3H]-PGD2 is detected using a Microbeta TRILUX liquid scintillation counter (Perkin Elmer). Compound IC50 value is determined using a 6-point dose response curve in duplicate with a semi-log compound dilution series. IC50 calculations are performed using Excel and XLfit (Microsoft), and this value is used to determine a Ki value for the test compound using the Cheng-Prusoff equation.

Consider two compounds from patent US20100144786A1, “QUINOLINE DERIVATIVES AS CRTH2 RECEPTOR LIGANDS” (priority 2007, published 2010).

What is called IC50 is the concentration that gives 50% inhibition.

`CCc1nc2c(F)ccc(OCC(=O)O)c2c(OC(F)F)c1Cc1ccc(C#N)cc1` [Example 1, [3-(4-cyanobenzyl)-4-difluoromethoxy-2-ethyl-8-fluoroquinolin-5-yloxy]acetic acid] registered an IC50 of 6.1 nM.
Take `CCc1nc2c(F)ccc(OCC(=O)O)c2c(OC(F)F)c1Cc1ccc(Br)cc1` [Example 2, [3-(4-bromobenzyl)-4-difluoromethoxy-2-ethyl-8-fluoroquinolin-5-yloxy]acetic acid]: the 50% inhibitory concentration (IC50) is 7.5 nM.
